Measured values taken from US20110003777A1, “Methods of Treatment Employing Prolonged Continuous Infusion of Belinostat” (TOPOTARGET A/S, priority 2008, published 2011).

Tests used:
[1] = system: P388: mouse lymphocytic leukemia; experiment: Clonogenic assay with increasing time of exposure, P388; type: cell-based
Excerpt: (§1) The data are summarised in FIG. 1, which is a graph of EC50 (μM), as determined using the clonogenic assay described above, as a function of exposure time (hours) for the four cells lines, P388 (diamonds), A2780 (circles), NYH (triangles), and L1210 (squares).

patients = conditions: 30 minute intravenous bolus with standard dose carboplatin or paclitaxel (Sinha et al., 2007); cited from earlier work
[2] = system: patients with various solid-tumours; conditions: intravenous bolus over 30 minutes, 150 to 1200 mg/m^2, solid tumours (Steele et al., 2008); cited from earlier work
[3] = water at physiological pH; cited from earlier work
[4] = system: NYH: human small cell lung cancer; experiment: Clonogenic assay with increasing time of exposure, NYH; type: cell-based
Excerpt: as §1

[5] = system: human patient with AML (acute myeloid leukemia); experiment: Continuous intravenous infusion in a human subject with AML; type: in vivo; conditions: for Blasts (absolute) / WBC / Platelets: peripheral blood
Excerpt: The patient was a person with AML (acute myeloid leukemia). The patient had arterial hypertension since 1986, hypothyroidism since 1997 (treated with levothyroxin), anorexia, an enlarged spleen, night sweats since 2007, allergic exanthema since January 2008, and conjunctival hemorrhage from February 2007. AML was first diagnosed in December 2006. Prior treatment included four courses of decitabine from July 2007 to November 2007.

[6] = reported; cited from earlier work
[7] = system: L1210: mouse lymphocytic leukemia; experiment: Clonogenic assay with increasing time of exposure, L1210; type: cell-based
Excerpt: as §1

[8] = system: A2780: human ovarian cancer; experiment: Clonogenic assay with increasing time of exposure, A2780; type: cell-based
Excerpt: as §1

[9] = Day 15, before starting the 2nd cycle

Question: Which EC50 values ([1]; P388, longer incubation (≧16 hours)) does the source give for `O=C(/C=C/c1cccc(S(=O)(=O)Nc2ccccc2)c1)NO` [Belinostat™, (E)-N-hydroxy-3-(3-phenylsulfamoyl-phenyl)-acrylamide] here?
Answer: Its EC50 values is “markedly reduced”.

Question: What about the “activity in clonogenic assay” value ([1]; P388, short incubation times) of the same compound?
Answer: Its value is “weak activity”.

Question: And the maximum tolerated dose (patients)?
Answer: Its maximum tolerated dose is 1000 mg/m^2/d.

Question: What about the maximum tolerated dose [2] of the same compound?
Answer: Its maximum tolerated dose is 1000 mg/m^2.

Question: And the solubility in water [3]?
Answer: Its solubility in water is “sparingly soluble”.

Question: What about the EC50 values ([4]; longer incubation (≧16 hours)) of the same compound?
Answer: The EC50 values was “markedly reduced”.

Question: What about the “activity in clonogenic assay” value ([4]; short incubation times) of the same compound?
Answer: Its value is “weak activity”.

Question: And the “tolerability of first infusion” value ([5]; 800 mg/m^2/d continuous i.v. infusion, first cycle)?
Answer: The value was “tolerated well”.

Question: And the “time of infusion at interruption due to fever (39° C.), dyspnea, and cough” value ([5]; 800 mg/m^2/d, first cycle, planned 48 hours)?
Answer: The value was 37 h.

Question: And the “tolerability of second cycle” value ([5]; 800 mg/m^2/d, full 48 hour cycle on Day 15 and Day 16)?
Answer: Its value is “no reports of serious adverse events”.

Question: And the “Platelet counts following second cycle” value ([5]; after second 48 hour cycle)?
Answer: The value was “moderately depressed”.

Question: And the “tolerability and efficacy of continuous infusion” value ([5]; human, continuous infusion)?
Answer: The value was “feasible, well tolerated and efficacious”.

Question: What about the “Blasts (absolute)” value ([5]; 24 h, pre-treatment 2.4) of the same compound?
Answer: Its value is 5e+08 L⁻¹.

Question: What about the WBC ([5]; 24 h, pre-treatment 3.8) of the same compound?
Answer: The WBC was 1.3e+09 L⁻¹.

Question: What about the “Blasts (absolute)” value ([5]; 48 h, pre-treatment 2.4) of the same compound?
Answer: Its value is 2e+08 L⁻¹.

Question: What about the WBC ([5]; 48 h, pre-treatment 3.8) of the same compound?
Answer: The WBC was 6e+08 L⁻¹.

Question: What about the “Blasts (absolute)” value ([5]; Day 5) of the same compound?
Answer: Its value is 1.6e+09 L⁻¹.

Question: And the Platelets ([5]; Day 5)?
Answer: The Platelets was 8e+10 L⁻¹.

Question: And the WBC ([5]; Day 5)?
Answer: Its WBC is 2.8e+09 L⁻¹.

Question: And the “Blasts (absolute)” value ([5]; Day 8)?
Answer: The value was 2e+09 L⁻¹.

Question: What about the Platelets ([5]; Day 8) of the same compound?
Answer: Its Platelets is 3.9e+10 L⁻¹.

Question: And the WBC ([5]; Day 8)?
Answer: The WBC was 4.2e+09 L⁻¹.

Question: What about the “Blasts (absolute)” value [5, 9] of the same compound?
Answer: Its value is 1.03e+10 L⁻¹.

Question: And the Platelets [5, 9]?
Answer: The Platelets was 7.3e+10 L⁻¹.

Question: What about the WBC [5, 9] of the same compound?
Answer: The WBC was 1.21e+10 L⁻¹.

Question: And the “Blasts (absolute)” value ([5]; Day 19 (after 2nd cycle))?
Answer: The value was 3.8e+09 L⁻¹.

Question: And the Platelets ([5]; Day 19 (after 2nd cycle))?
Answer: The Platelets was 4.2e+10 L⁻¹.

Question: What about the WBC ([5]; Day 19 (after 2nd cycle)) of the same compound?
Answer: Its WBC is 4.9e+09 L⁻¹.

Question: What about the “Blasts (absolute)” value ([5]; Day 22) of the same compound?
Answer: The value was 5.6e+09 L⁻¹.

Question: What about the Platelets ([5]; Day 22) of the same compound?
Answer: The Platelets was 3.3e+10 L⁻¹.

Question: What about the WBC ([5]; Day 22) of the same compound?
Answer: The WBC was 7.4e+09 L⁻¹.

Question: And the “Blasts (absolute)” value ([5]; Day 26)?
Answer: Its value is 1.26e+10 L⁻¹.

Question: And the Platelets ([5]; Day 26)?
Answer: Its Platelets is 3.4e+10 L⁻¹.

Question: And the WBC ([5]; Day 26)?
Answer: Its WBC is 1.57e+10 L⁻¹.

Question: And the plasma half-life [6]?
Answer: Its plasma half-life is 47 to 86 min.

Question: What about the EC50 values ([7]; L1210, longer incubation (≧16 hours)) of the same compound?
Answer: Its EC50 values is “markedly reduced”.

Question: And the “activity in clonogenic assay” value ([7]; L1210, short incubation times)?
Answer: The value was “weak activity”.

Question: And the EC50 values ([8]; A2780, longer incubation (≧16 hours))?
Answer: The EC50 values was “markedly reduced”.

Question: What about the “activity in clonogenic assay” value ([8]; A2780, short incubation times) of the same compound?
Answer: The value was “weak activity”.
